Experimental data: ChEMBL document CHEMBL3813683, “Design, synthesis and anti-cancer activity evaluation of podophyllotoxin-norcantharidin hybrid drugs” (Bioorg Med Chem Lett, 2016)
pIC50: −log10 of the molar value. Active and inactive are the calls of the source. The rule behind the calls is not given here.

Key:
Tubulin (Homo sapiens) [1] = target: T1, Tubulin (Homo sapiens) (UniProt P68371+Q9H4B7+P0DPH7+P68366+Q13509+Q71U36+P04350+Q3ZCM7+P07437+P68363+Q9BQE3+Q6PEY2+Q13885+Q9BVA1+Q9BUF5); experiment: Inhibition of tubulin polymerization in human MCF7 cells assessed as alteration of interphase microtubule network at 2 uM after 24 hrs by DAPI staining-based confocal microscopic analysis; format: cell-based
MCF7 [2] = experiment: Induction of apoptosis in human MCF7 cells assessed as viable cells at 8 uM after 24 hrs by Annexin V-FITC/propidium iodide staining-based flow cytometry (reference value: 80 to 91.6%); format: functional; conditions: MCF7, 24 h, read-out: Activity
MCF7 [3] = experiment: Induction of apoptosis in human MCF7 cells assessed as early apoptotic cells at 1 uM after 24 hrs by Annexin V-FITC/propidium iodide staining-based flow cytometry (reference value: 2.45 to 6.92%); format: functional
MCF7 [4] = experiment: Cell cycle arrest in human MCF7 cells assessed as accumulation at G2/M phase at 4 uM after 24 hrs by propidium iodide staining-based flow cytometry (reference value: 3.73 to 10.75%); format: functional
MCF7 [5] = experiment: Cell cycle arrest in human MCF7 cells assessed as accumulation at G2/M phase at 8 uM after 24 hrs by propidium iodide staining-based flow cytometry (reference value: 3.73 to 10.75%); format: functional
MCF7 [6] = experiment: Induction of apoptosis in human MCF7 cells assessed as late apoptotic cells at 4 uM after 24 hrs by Annexin V-FITC/propidium iodide staining-based flow cytometry (reference value: 5.92 to 9.33%); format: functional
A549 = experiment: Cytotoxicity against human A549 cells after 36 hrs by MTT assay; format: functional, cell-based; conditions: A549, 36 h
MCF7 [7] = experiment: Induction of apoptosis in human MCF7 cells assessed as viable cells at 4 uM after 24 hrs by Annexin V-FITC/propidium iodide staining-based flow cytometry (reference value: 80 to 91.6%); format: functional; conditions: MCF7, 24 h, read-out: Activity
MCF7 [8] = experiment: Induction of apoptosis in human MCF7 cells assessed as necrotic cells at 4 uM after 24 hrs by Annexin V-FITC/propidium iodide staining-based flow cytometry (reference value: 0.021 to 3.8%); format: functional
MCF7 [9] = experiment: Induction of apoptosis in human MCF7 cells assessed as late apoptotic cells at 2 uM after 24 hrs by Annexin V-FITC/propidium iodide staining-based flow cytometry (reference value: 5.92 to 9.33%); format: functional
MCF7 [10] = experiment: Induction of apoptosis in human MCF7 cells assessed as necrotic cells at 8 uM after 24 hrs by Annexin V-FITC/propidium iodide staining-based flow cytometry (reference value: 0.021 to 3.8%); format: functional
MCF7 [11] = experiment: Cell cycle arrest in human MCF7 cells assessed as accumulation at G0/G1 phase at 4 uM after 24 hrs by propidium iodide staining-based flow cytometry (reference value: 64.68 to 80.32%); format: functional
MCF7 [12] = experiment: Induction of apoptosis in human MCF7 cells assessed as early apoptotic cells at 8 uM after 24 hrs by Annexin V-FITC/propidium iodide staining-based flow cytometry (reference value: 2.45 to 6.92%); format: functional
MCF7 [13] = experiment: Induction of apoptosis in human MCF7 cells assessed as necrotic cells at 2 uM after 24 hrs by Annexin V-FITC/propidium iodide staining-based flow cytometry (reference value: 0.021 to 3.8%); format: functional
MCF7 [14] = experiment: Induction of apoptosis in human MCF7 cells assessed as early apoptotic cells at 4 uM after 24 hrs by Annexin V-FITC/propidium iodide staining-based flow cytometry (reference value: 2.45 to 6.92%); format: functional
MCF7 [15] = experiment: Cell cycle arrest in human MCF7 cells assessed as accumulation at G2/M phase at 2 uM after 24 hrs by propidium iodide staining-based flow cytometry (reference value: 3.73 to 10.75%); format: functional
MCF7 [16] = experiment: Cell cycle arrest in human MCF7 cells assessed as accumulation at S phase at 2 uM after 24 hrs by propidium iodide staining-based flow cytometry (reference value: 15.95 to 25.74%); format: functional
MCF7 [17] = experiment: Upregulation of CDK1 in human MCF7 cells at 2 to 8 uM after 24 hrs by Western blot analysis; format: functional, cell-based
MCF7 [18] = experiment: Induction of apoptosis in human MCF7 cells assessed as late apoptotic cells at 1 uM after 24 hrs by Annexin V-FITC/propidium iodide staining-based flow cytometry (reference value: 5.92 to 9.33%); format: functional
MCF7 [19] = experiment: Induction of apoptosis in human MCF7 cells assessed as viable cells at 1 uM after 24 hrs by Annexin V-FITC/propidium iodide staining-based flow cytometry (reference value: 80 to 91.6%); format: functional; conditions: MCF7, 24 h, read-out: Activity
[20] = Cytotoxicity against HEK293T cells after 36 hrs by MTT assay; format: cell-based; conditions: Homo sapiens, HEK-293T
HeLa = experiment: Cytotoxicity against human HeLa cells after 36 hrs by MTT assay; format: functional, cell-based
MCF7 [21] = experiment: Induction of apoptosis in human MCF7 cells after 24 hrs by Annexin V-FITC/propidium iodide staining-based flow cytometry; format: functional, cell-based
Tubulin (Homo sapiens) [22] = target: T1, Tubulin (Homo sapiens); experiment: Inhibition of tubulin polymerization in human MCF7 cells assessed as alteration of interphase microtubule network at 4 uM after 24 hrs by DAPI staining-based confocal microscopic analysis; format: cell-based
MCF7 [23] = experiment: Induction of apoptosis in human MCF7 cells assessed as increase in PARP cleavage at 8 uM after 24 hrs by Western blot analysis; format: functional, cell-based
MCF7 [24] = experiment: Cell cycle arrest in human MCF7 cells assessed as accumulation at G0/G1 phase at 8 uM after 24 hrs by propidium iodide staining-based flow cytometry (reference value: 64.68 to 80.32%); format: functional
MCF7 [25] = experiment: Cell cycle arrest in human MCF7 cells assessed as accumulation at G0/G1 phase at 2 uM after 24 hrs by propidium iodide staining-based flow cytometry (reference value: 64.68 to 80.32%); format: functional
MCF7 [26] = experiment: Cell cycle arrest in human MCF7 cells assessed as accumulation at S phase at 4 uM after 24 hrs by propidium iodide staining-based flow cytometry (reference value: 15.95 to 25.74%); format: functional
MCF7 [27] = experiment: Downregulation of cyclin B1 in human MCF7 cells at 2 to 8 uM after 24 hrs by Western blot analysis; format: functional, cell-based
MCF7 [28] = experiment: Induction of apoptosis in human MCF7 cells assessed as early apoptotic cells at 2 uM after 24 hrs by Annexin V-FITC/propidium iodide staining-based flow cytometry (reference value: 2.45 to 6.92%); format: functional
MCF7 [29] = experiment: Induction of apoptosis in human MCF7 cells assessed as necrotic cells at 1 uM after 24 hrs by Annexin V-FITC/propidium iodide staining-based flow cytometry (reference value: 0.021 to 3.8%); format: functional
MCF7 [30] = experiment: Induction of apoptosis in human MCF7 cells assessed as late apoptotic cells at 8 uM after 24 hrs by Annexin V-FITC/propidium iodide staining-based flow cytometry (reference value: 5.92 to 9.33%); format: functional
MCF7 [31] = experiment: Induction of apoptosis in human MCF7 cells assessed as viable cells at 2 uM after 24 hrs by Annexin V-FITC/propidium iodide staining-based flow cytometry (reference value: 80 to 91.6%); format: functional; conditions: MCF7, 24 h, read-out: Activity
MCF7 [32] = experiment: Cell cycle arrest in human MCF7 cells assessed as accumulation at S phase at 8 uM after 24 hrs by propidium iodide staining-based flow cytometry (reference value: 15.95 to 25.74%); format: functional
MCF7 [33] = experiment: Cytotoxicity against human MCF7 cells after 36 hrs by MTT assay; format: functional, cell-based; conditions: MCF7, 36 h

Q: Which inhibition (Tubulin (Homo sapiens) [1]) does the source give for `CC(=O)O[C@H]1C(=O)[C@@]2(C)[C@H]([C@H](OC(=O)c3ccccc3)[C@]3(O)C[C@H](OC(=O)[C@H](O)[C@@H](NC(=O)c4ccccc4)c4ccccc4)C(C)=C1C3(C)C)[C@]1(OC(C)=O)CO[C@@H]1C[C@@H]2O` here?
A: The inhibition was “inactive”.

Q: With `COc1cc(C2c3cc4c(cc3[C@H](OC(=O)C(Cc3ccccc3)N3C(=O)C5C6CCC(O6)C5C3=O)[C@H]3COC(=O)[C@H]23)OCO4)cc(OC)c1OC` (stereo not given in full) as the molecule, how does the viability at 8 µM (MCF7 [2]) read?
A: Its viability at 8 µM is 31.1%.

Q: And the Activity (MCF7 [3])?
A: The Activity was 50.3%.

Q: What about the Activity (MCF7 [4]) of the same molecule?
A: The Activity was 38.94%.

Q: And the Activity (MCF7 [5])?
A: Its Activity is 59.61%.

Q: And the Activity (MCF7 [6])?
A: The Activity was 6.15%.

Q: And the pIC50 (A549)?
A: Its pIC50 is 5.11.

Q: And the viability at 4 µM (MCF7 [7])?
A: Its viability at 4 µM is 20.7%.

Q: And the Activity (MCF7 [8])?
A: The Activity was 0.03%.

Q: What about the Activity (MCF7 [9]) of the same molecule?
A: Its Activity is 4.51%.

Q: What about the Activity (MCF7 [10]) of the same molecule?
A: Its Activity is 0.022%.

Q: And the Activity (MCF7 [11])?
A: The Activity was 17.24%.

Q: What about the Activity (MCF7 [12]) of the same molecule?
A: The Activity was 61.9%.

Q: And the Activity (MCF7 [13])?
A: Its Activity is 0%.

Q: What about the Activity (MCF7 [14]) of the same molecule?
A: Its Activity is 73.1%.

Q: What about the Activity (MCF7 [15]) of the same molecule?
A: Its Activity is 32.33%.

Q: What about the Activity (MCF7 [16]) of the same molecule?
A: Its Activity is 45.05%.

Q: What about the Activity (MCF7 [17]) of the same molecule?
A: The Activity was “inactive”.

Q: And the Activity (MCF7 [18])?
A: The Activity was 14.2%.

Q: And the viability at 1 µM (MCF7 [19])?
A: The viability at 1 µM was 35.4%.

Q: What about the pIC50 [20] of the same molecule?
A: Its pIC50 is 4.26.

Q: What about the pIC50 (HeLa) of the same molecule?
A: The pIC50 was 5.49.

Q: And the Activity (MCF7 [21])?
A: The Activity was “Dose-dependent effect”.

Q: And the inhibition (Tubulin (Homo sapiens) [22])?
A: The inhibition was “Active”.

Q: What about the Activity (MCF7 [23]) of the same molecule?
A: The Activity was “Active”.

Q: And the Activity (MCF7 [24])?
A: The Activity was 8.17%.

Q: What about the Activity (MCF7 [25]) of the same molecule?
A: The Activity was 22.62%.

Q: What about the Activity (MCF7 [26]) of the same molecule?
A: Its Activity is 43.82%.

Q: What about the Activity (MCF7 [27]) of the same molecule?
A: The Activity was “Active”.

Q: And the Activity (MCF7 [28])?
A: Its Activity is 80.1%.

Q: And the Activity (MCF7 [29])?
A: Its Activity is 0.021%.

Q: What about the Activity (MCF7 [30]) of the same molecule?
A: Its Activity is 6.97%.

Q: What about the viability at 2 µM (MCF7 [31]) of the same molecule?
A: The viability at 2 µM was 15.4%.

Q: And the Activity (MCF7 [32])?
A: Its Activity is 32.22%.

Q: What about the pIC50 (MCF7 [33]) of the same molecule?
A: Its pIC50 is 6.06.
